Test results from patent US20200016159A1, “N3-CYCLICALLY SUBSTITUTED THIENOURACILS AND USE THEREOF” (Bayer Aktiengesellschaft, priority 2016, published 2020).

Target: T1, human adenosine A2b receptor (Homo sapiens, UniProt P29275)
T1 sequence (P29275 1-332): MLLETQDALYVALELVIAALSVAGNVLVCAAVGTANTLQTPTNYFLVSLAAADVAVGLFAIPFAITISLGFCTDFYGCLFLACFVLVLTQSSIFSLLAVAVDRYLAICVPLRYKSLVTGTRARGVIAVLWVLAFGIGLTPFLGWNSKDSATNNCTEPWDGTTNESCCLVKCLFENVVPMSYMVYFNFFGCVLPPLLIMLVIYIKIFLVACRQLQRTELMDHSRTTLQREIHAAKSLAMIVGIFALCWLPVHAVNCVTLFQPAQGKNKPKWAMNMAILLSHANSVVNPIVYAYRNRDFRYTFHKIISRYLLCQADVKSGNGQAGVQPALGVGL
Assay: Cellular in vitro reporter gene test for A2b receptor activity (antagonism of NECA)
Format: cell-based
Set-up: expressed in transfected cells; host or cells: CHO-K1 (Chinese hamster ovary) with CRE-luciferase reporter
Settings: recombinant CHO-K1 cells, CRE-luciferase reporter, co-incubation with EC50 concentration of NECA, 3 hours
Summary of the method: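 Antagonism measured as block of NECA-induced, cAMP/CRE-dependent luciferase expression in recombinant A2b CHO-K1 cells. NECA used at the EC50 set in a pre-experiment on each test day; luminescence detected after 3 h. Reported as IC50, partly averaged and rounded to two significant figures.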

With `Cc1c(CN2CCNC2=S)sc2c1c(=O)n(C1CC1)c(=O)n2CCCF` [Example 6, 3-Cyclopropyl-1-(3-fluoropropyl)-5-methyl-6-[(2-thioxoimidazolidin-1-yl)methyl]thieno[2,3-d]pyrimidine-2,4(1H,3H)-dione] as the molecule, how does the IC50 read?
The IC50 was 12 nM.

`Cc1c(CN2CCNC2=O)sc2c1c(=O)n(C1CC1C)c(=O)n2CCCC(F)(F)F` (racemic) [Example 242, 5-Methyl-3-(2-methylcyclopropyl)-6-[(2-oxoimidazolidin-1-yl)methyl]-1-(4,4,4-trifluorobutyl)thieno[2,3-d]pyrimidine-2,4(1H,3H)-dione] was tested. Which IC50 did it give?
The IC50 was 2.1 nM.

With `COCCn1c(=O)n(C2(C)CC2)c(=O)c2c(C)c(CN3CCNC3=NC#N)sc21` [Example 71, [1-{[1-(2-Methoxyethyl)-5-methyl-3-(1-methylcyclopropyl)-2,4-dioxo-1,2,3,4-tetrahydrothieno[2,3-d]pyrimidin-6-yl]methyl}imidazolidine-2-ylidene]cyanamide] as the molecule, how does the IC50 read?
Its IC50 is 12 nM.

`Cc1c(CN2CCNC2=O)sc2c1c(=O)n(C1CC1C)c(=O)n2CCOC(F)(F)F` (racemic) [Example 261, 5-Methyl-3-(2-methylcyclopropyl)-6-[(2-oxoimidazolidin-1-yl)methyl]-1-[2-(trifluoromethoxy)ethyl]thieno[2,3-d]pyrimidine-2,4(1H,3H)-dione] was tested. Which IC50 did it give?
The IC50 was 15 nM.

With `Cc1c(Cn2nc[nH]c2=O)sc2c1c(=O)n(C1CC1)c(=O)n2C` [Example 2, 3-Cyclopropyl-1,5-dimethyl-6-[(5-oxo-4,5-dihydro-1H-1,2,4-triazol-1-yl)methyl]thieno[2,3-d]pyrimidine-2,4(1H,3H)-dione] as the molecule, how does the IC50 read?
The IC50 was 81 nM.

How did the IC50 turn out when `Cc1c(CN2CCNC2=O)sc2c1c(=O)n(C1CC(F)(F)C1)c(=O)n2CCC(F)(F)F` [Example 120, 3-(3,3-Difluorocyclobutyl)-5-methyl-6-[(2-oxoimidazolidin-1-yl)methyl]-1-(3,3,3-trifluoropropyl)thieno[2,3-d]pyrimidine-2,4(1H,3H)-dione] was run?
Its IC50 is 3.2 nM.

With `CO[C@H]1C[C@@H](n2c(=O)c3c(C)c(CN4CCNC4=O)sc3n(CCC(F)(F)F)c2=O)C1` [Example 154, 3-(cis-3-Methoxycyclobutyl)-5-methyl-6-[(2-oxoimidazolidin-1-yl)methyl]-1-(3,3,3-trifluoropropyl)thieno[2,3-d]pyrimidine-2,4(1H,3H)-dione] as the molecule, how does the IC50 read?
The IC50 was 23 nM.

`COCCn1c(=O)n(C2(C)CCC2)c(=O)c2c(C)c(CN3CCNC3=O)sc21` [Example 139, 1-(2-Methoxyethyl)-5-methyl-3-(1-methylcyclobutyl)-6-[(2-oxoimidazolidin-1-yl)methyl]thieno[2,3-d]pyrimidine-2,4(1H,3H)-dione] was tested. Which IC50 did it give?
The IC50 was 310 nM.

Which IC50 does the source give for `Cc1c(CN2CCNC2=O)sc2c1c(=O)n(C1CC1C)c(=O)n2CCF` (single isomer, unassigned) [Example 232, 1-(2-Fluoroethyl)-5-methyl-3-(2-methylcyclopropyl)-6-[(2-oxoimidazolidin-1-yl)methyl]thieno[2,3-d]pyrimidine-2,4(1H,3H)-dione] here?
Its IC50 is 0.86 nM.

Which IC50 does the source give for `COCCn1c(=O)n(C2CC3(CCC3)C2)c(=O)c2c(C)c(CN3CCNC(=O)C3=O)sc21` [Example 182, 6-[(2,3-Dioxopiperazin-1-yl)methyl]-1-(2-methoxyethyl)-5-methyl-3-(spiro[3.3]hept-2-yl)thieno[2,3-d]pyrimidine-2,4(1H,3H)-dione] here?
Its IC50 is 27 nM.

How did the IC50 turn out when `Cc1c(CN2CCNC2=O)sc2c1c(=O)n([C@H]1C[C@@H]1C)c(=O)n2CC1CCO1` (single isomer, unassigned) [Example 284] was run?
The IC50 was 8.6 nM.

Which IC50 does the source give for `CCn1c(=O)n(C2CC2C)c(=O)c2c(C)c(CN3CCNC3=O)sc21` (single isomer, unassigned) [Example 226, 1-Ethyl-5-methyl-3-(2-methylcyclopropyl)-6-[(2-oxoimidazolidin-1-yl)methyl]thieno[2,3-d]pyrimidine-2,4(1H,3H)-dione] here?
Its IC50 is 1.9 nM.

How did the IC50 turn out when `COC(=O)N=C1NCCN1Cc1sc2c(c1C)c(=O)n(C1CC1C)c(=O)n2CCOC(F)(F)F` (single isomer, unassigned) [Example 269, Methyl [1-({5-methyl-3-(2-methylcyclopropyl)-2,4-dioxo-1-[2-(trifluoromethoxy)ethyl]-1,2,3,4-tetrahydrothieno[2,3-d]pyrimidin-6-yl}methyl)imidazolidin-2-ylidene]carbamate] was run?
Its IC50 is 2 nM.

How did the IC50 turn out when `Cc1c(Cn2nc[nH]c2=O)sc2c1c(=O)n(C1CC1)c(=O)n2CC(F)F` [Example 199, 3-Cyclopropyl-1-(2,2-difluoroethyl)-5-methyl-6-[(5-oxo-4,5-dihydro-H-1,2,4-triazol-1-yl)methyl]thieno[2,3-d]pyrimidine-2,4(1H,3H)-dione] was run?
The IC50 was 130 nM.

`Cc1c(Cn2nc[nH]c2=O)sc2c1c(=O)n(C1CC1)c(=O)n2CC1CC(F)(F)C1` [Example 206, 3-Cyclopropyl-1-[(3,3-difluorocyclobutyl)methyl]-5-methyl-6-[(5-oxo-4,5-dihydro-1H-1,2,4-triazol-1-yl)methyl]thieno[2,3-d]pyrimidine-2,4(1H,3H)-dione] was tested. Which IC50 did it give?
Its IC50 is 6.2 nM.

Which IC50 does the source give for `COCCn1c(=O)n(C2CC3(CCC3)C2)c(=O)c2c(C)c(CN3CCNC3=NC(=O)OC)sc21` [Example 181, Methyl [1-{[1-(2-methoxyethyl)-5-methyl-2,4-dioxo-3-(spiro[3.3]hept-2-yl)-1,2,3,4-tetrahydrothieno[2,3-d]pyrimidin-6-yl]methyl}imidazolidin-2-ylidene]carbamate] here?
Its IC50 is 6.7 nM.

Which IC50 does the source give for `[2H]C([2H])(c1sc2c(c1C)c(=O)n(C1CC1)c(=O)n2CCOC)N1CCNC1=O` [Example 30, 3-Cyclopropyl-1-(2-methoxyethyl)-5-methyl-6-[(2-oxoimidazolidin-1-yl)dideuteromethyl]thieno[2,3-d]pyrimidine-2,4(1H,3H)-dione] here?
Its IC50 is 9.3 nM.

Which IC50 does the source give for `COC(=O)N=C1NCCN1Cc1sc2c(c1C)c(=O)n(C1(C)CCC1)c(=O)n2CCC(F)(F)F` [Example 136, Methyl [1-{[5-methyl-3-(1-methylcyclobutyl)-2,4-dioxo-1-(3,3,3-trifluoropropyl)-1,2,3,4-tetrahydrothieno[2,3-d]pyrimidin-6-yl]methyl}imidazolidin-2-ylidene]carbamate] here?
Its IC50 is 19 nM.

How did the IC50 turn out when `Cc1c(CN2CCNC2=O)sc2c1c(=O)n([C@H]1C[C@@H]1C)c(=O)n2CC1CCC(F)(F)C1` (single isomer, unassigned) [Example 256] was run?
Its IC50 is 5.5 nM.

Which IC50 does the source give for `Cc1c(Cn2nc[nH]c2=O)sc2c1c(=O)n([C@H]1C[C@@H]1C)c(=O)n2CC1CC1(F)F` (stereo partly drawn) [Example 326, 1-[(2,2-Difluorocyclopropyl)methyl]-5-methyl-3-[(1S,2S)-2-methylcyclopropyl]-6-[(5-oxo-4,5-dihydro-1H-1,2,4-triazol-1-yl)methyl]thieno[2,3-d]pyrimidine-2,4(1H,3H)-dione] here?
The IC50 was 17 nM.

With `Cc1c(Cn2[nH]ccc2=O)sc2c1c(=O)n(C1CC(C)(C)C1)c(=O)n2CCC(F)(F)F` [Example 314, 3-(3,3-Dimethylcyclobutyl)-5-methyl-6-[(5-oxo-2,5-dihydro-H-pyrazol-1-yl)methyl]-1-(3,3,3-trifluoropropyl)thieno[2,3-d]pyrimidine-2,4(1H,3H)-dione] as the molecule, how does the IC50 read?
The IC50 was 49 nM.

For `Cc1c(CN2CCNC(=O)C2=O)sc2c1c(=O)n(C1CCC1)c(=O)n2CCC(F)(F)F` [Example 113, 3-Cyclobutyl-6-[(2,3-dioxopiperazin-1-yl)methyl]-5-methyl-1-(3,3,3-trifluoropropyl)thieno[2,3-d]pyrimidine-2,4(1H,3H)-dione], which IC50 is on record?
The IC50 was 2 nM.

How did the IC50 turn out when `Cc1c(Cn2nc[nH]c2=O)sc2c1c(=O)n(C1CC1)c(=O)n2CC1CCC1(F)F` (single isomer, unassigned; enantiomer 1) [Example 202, 3-Cyclopropyl-1-[(2,2-difluorocyclobutyl)methyl]-5-methyl-6-[(5-oxo-4,5-dihydro-1H-1,2,4-triazol-1-yl)methyl]thieno[2,3-d]pyrimidine-2,4(1H,3H)-dione (enantiomer 1)] was run?
Its IC50 is 140 nM.

For `COCCn1c(=O)n(C2CC2C(F)(F)F)c(=O)c2c(C)c(Cn3nc[nH]c3=O)sc21` (single isomer, unassigned) [Example 299, 1-(2-Methoxyethyl)-5-methyl-6-[(5-oxo-4,5-dihydro-H-1,2,4-triazol-1-yl)methyl]-3-[2-(trifluoromethyl)cyclopropyl]thieno[2,3-d]pyrimidine-2,4(1H,3H)-dione], which IC50 is on record?
Its IC50 is 220 nM.

For `Cc1c(CN2CCNC2=NC#N)sc2c1c(=O)n(C1CC(F)(F)C1)c(=O)n2CCC(F)(F)F` [Example 121, [1-{[3-(3,3-Difluorocyclobutyl)-5-methyl-2,4-dioxo-1-(3,3,3-trifluoropropyl)-1,2,3,4-tetrahydrothieno[2,3-d]pyrimidin-6-yl]methyl}imidazolidin-2-ylidene]cyanamide], which IC50 is on record?
Its IC50 is 15 nM.

How did the IC50 turn out when `Cc1c(CN2CCNC2=O)sc2c1c(=O)n(C1CC1(C)C)c(=O)n2CCCF` (single isomer, unassigned) [Example 99, 3-(2,2-Dimethylcyclopropyl)-1-(3-fluoropropyl)-5-methyl-6-[(2-oxoimidazolidin-1-yl)methyl]thieno[2,3-d]pyrimidine-2,4(1H,3H)-dione] was run?
Its IC50 is 28 nM.

How did the IC50 turn out when `Cc1c(CN2CCNC2=O)sc2c1c(=O)n(C1CC1C)c(=O)n2CCC(F)(F)C(F)F` (single isomer, unassigned) [Example 246, 5-Methyl-3-(2-methylcyclopropyl)-6-[(2-oxoimidazolidin-1-yl)methyl]-1-(3,3,4,4-tetrafluorobutyl)thieno[2,3-d]pyrimidine-2,4(1H,3H)-dione] was run?
Its IC50 is 22 nM.
